Test system: influenza A/Perth/265/2009 (H1N1pdm09) (H275Y)
Type: cell-based, influenza A virus

## O=C1c2c(O)c(=O)ccn2N([C@@H]2c3ccc(F)c(F)c3CSc3ccsc32)[C@@H]2COCCN12 [1.3.2, (12aR)-7-hydroxy-12-[(10R)-6,7-difluoro-5,10-dihydrothieno[3,2-c][2]benzothiepin-10-yl]-3,4,12,12a-tetrahydro-1H-[1,4]oxazino[3,4-c]pyrido[2,1-f][1,2,4]triazine-6,8-dione]
  EC50: 0.8 nM

Reference: patent publication US12091423B2, “Substituted 3,4,12,12a-tetrahydro-1H-[1,4]oxazino[3,4-c]pyrido[2,1-f][1,2,4]triazine-6,8-dione, pharmaceutical composition, method for the production and use thereof” (VIRIOM, INC., priority 2019, dated 2024)
